Literature values as cited in patent US20190160002A1, “PROCESS FOR PREPARING STERILE ARIPIPRAZOLE FORMULATION” (Mylan Laboratories Ltd., priority 2016, published 2019).

Effect of dry heat sterilization (dry heat sterilization): melted
Effect of gamma-ray and electron beam sterilization (gamma-ray and electron beam): discolored and decomposed
Effect of steam heat sterilization on particles (particles in aqueous suspension, steam heat sterilization): tend to agglomerate
Structure (SMILES): O=C1CCc2ccc(OCCCCN3CCN(c4cccc(Cl)c4Cl)CC3)cc2N1 [aripiprazole monohydrate]
